Results as given in patent US20070117743A1, “New antitumoral compounds” (priority 2003, published 2007).
Read-outs that look alike come from different tables or passages of the source. Where a SMILES comes first, the peptide text is derived from it. Bridges are numbered along the chain shown (N, C = ends). [ ]: non-standard residue; d: D form. The star is where a group is joined. Hexanoyl(4S-Me) = CC[C@H](C)CCC(=O)*; d(aIle) = CC[C@H](C)[C@@H](N)C(=O)O; d(aThr) = C[C@@H](O)[C@@H](N)C(=O)O; dTic = O=C(O)[C@H]1Cc2ccccc2CN1; Orn = NCCC[C@H](N)C(=O)O; Dhb = C/C=C(\N)C(=O)O

Assays:
Type in all cases: cell-based, human
HT-29 = assay: SRB colorimetric assay of cell growth and viability, HT-29; settings: 48 hours exposure; for GI50: read-out: GI50 HT-29; for CC50: read-out: LC50 HT-29
SK-BR-3 = assay: SRB colorimetric assay of cell growth and viability, SK-BR-3; settings: 48 hours exposure
SK-MEL-28 = assay: SRB colorimetric assay of cell growth and viability, SK-MEL-28; settings: 48 hours exposure; for CC50: read-out: LC50 MEL-28
IGROV-ET = assay: SRB colorimetric assay of cell growth and viability, IGROV-ET; settings: 48 hours exposure; for CC50: read-out: LC50 IGROV-ET
DU-145 = assay: SRB colorimetric assay of cell growth and viability, DU-145; settings: 48 hours exposure
IGROV-1 = assay: SRB colorimetric assay of cell growth and viability, IGROV-1; settings: 48 hours exposure
LoVo = assay: SRB colorimetric assay of cell growth and viability, LoVo; settings: 48 hours exposure; for CC50: read-out: LC50 LOVO
HeLa-APL = assay: SRB colorimetric assay of cell growth and viability, HeLa-APL; settings: 48 hours exposure; for CC50: read-out: LC50 HELA-APL
PANC-1 = assay: SRB colorimetric assay of cell growth and viability, PANC-1; settings: 48 hours exposure; for CC50: read-out: LC50 PANC-1
K-562 = assay: SRB colorimetric assay of cell growth and viability, K-562; settings: 48 hours exposure; for CC50: read-out: LC50 K-562
A-549 = assay: SRB colorimetric assay of cell growth and viability, A-549; settings: 48 hours exposure; for GI50: read-out: GI50 A-549; for CC50: read-out: LC50 A-549
LNCaP = assay: SRB colorimetric assay of cell growth and viability, LNCaP; settings: 48 hours exposure; for GI50: read-out: GI50 LN-caP; for CC50: read-out: LC50 LN-caP
From the text: The finality of this assay is to interrupt the growth of a “in vitro” tumor cell culture by means a continued exhibition of the cells to the sample to be testing.
This form of the assay employs 96 well cell culture microplates of 9 mm diameter (Faircloth, 1988; Mosmann, 1983). Most of the cell lines are obtained from American Type Culture Collection (ATCC) derived from different human cancer types.
Cells are maintained in RPMI 1640 10% FBS, supplemented with 0.1 g/l penicillin and 0.1 g/l streptomycin sulfate and then incubated at 37° C., 5% CO2 and 98% humidity. For the experiments, cells were harvested from subconfluent cultures using trypsin and resuspended in fresh medium before plating.
Cells are seeded in 96 well microtiter plates, at 5×10^3 cells per well in aliquots of 195 μL medium, and they are allowed to attach to the plate surface by growing in drug free medium for 18 hours. Afterward, samples are added in aliquots of 5 μL in a ranging from 10 to 10^−8 μg/mL, dissolved in DMSO:EtOH:PBS (0.5:0.5:99). After 48 hours exposure, the antitumor effect are measured by the SRB methodology: cells are fixed by adding 50 μL of cold 50% (wt/vol) trichloroacetic acid (TCA) and incubating for 60 minutes at 4° C. Plates are washed with deionized water and dried. One hundred μL of SRB solution (0.4% wt/vol in 1% acetic acid) is added to each microtiter well and incubated for 10 minutes at room temperature. Unbound SRB is removed by washing with 1% acetic acid. Plates are air dried and bound stain is solubilized with Tris buffer. Optical densities are read on a automated spectrophotometric plate reader at a single wavelength of 490 nm.
The values for mean+/− SD of data from triplicate wells are calculated. Some parameters for cellular responses can be calculated: GI=growth inhibition, TGI=total growth inhibition (cytostatic effect) and LC=cell killing (cytotoxic effect).

HeLa = assay: SRB colorimetric assay of cell growth and viability, HeLa; settings: 48 hours exposure; for CC50: read-out: LC50 HELA
LoVo-Dox = assay: SRB colorimetric assay of cell growth and viability, LoVo-Dox; settings: LOVO-DOX, 48 hours exposure
Method in brief: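 After 48 hours continuous exposure to samples spanning 10 to 10^−8 μg/mL, biomass was quantified by sulforhodamine B staining of TCA-fixed cells (OD 490 nm). Cells, 5×10^3 per well in RPMI 1640 10% FBS, had attached 18 hours first; GI, TGI and LC derived from triplicate wells.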

C/C=C1\NC(=O)[C@H](Cc2ccccc2)NC(=O)[C@@H](C(C)C)NC(=O)[C@@H]([C@@H](C)CC)NC(=O)[C@H](NC(=O)[C@H](NC(=O)[C@H](CCCN)NC(=O)[C@H]2CCCN2C(=O)[C@H](NC(=O)[C@@H](NC(=O)[C@@H](NC(=O)[C@H](NC(=O)CCCCCCCCCCCCCCCCCCC)C(C)C)[C@@H](C)O)C(C)C)C(C)C)[C@@H](C)CC)[C@@H](C)OC(=O)[C@H](C(C)C)NC1=O [Compound 13, [Icos^14]-KF]
TGI HT-29 (HT-29): 2.32E−06 Molar
GI50 (HT-29): 1.26 µM
CC50 (HT-29): 4.28 µM
GI50 (SK-BR-3): 0.861 µM
LC50 (SK-BR-3): 3.99 µM
TGI SK-BR-3 (SK-BR-3): 1.86E−06 Molar
GI50 (SK-MEL-28): 1.25 µM
TGI MEL-28 (SK-MEL-28): 2.21E−06 Molar
CC50 (SK-MEL-28): 3.93 µM
GI50 (IGROV-ET): 1.66 µM
TGI IGROV-ET (IGROV-ET): 2.81E−06 Molar
CC50 (IGROV-ET): 4.79 µM
GI50 (DU-145): 1.28 µM
LC50 (concentration causing 50% net cell kill) (DU-145): 4.04 µM
TGI DU-145 (DU-145): 2.28E−06 Molar
GI50 (IGROV-1): 1.36 µM
LC50 (concentration causing 50% net cell killing) (IGROV-1): 4.68 µM
TGI IGROV (IGROV-1): 2.52E−06 Molar
GI50 (LoVo): 0.903 µM
TGI LOVO (LoVo): 1.79E−06 Molar
CC50 (LoVo): 3.58 µM
GI50 (HeLa-APL): 1.25 µM
CC50 (HeLa-APL): 3.98 µM
GI50 (PANC-1): 2.02 µM
TGI PANC-1 (PANC-1): 5.48E−06 Molar
CC50 (PANC-1): 6.02 µM
GI50 (K-562): 1.23 µM
TGI K-562 (K-562): 2.42E−06 Molar
CC50 (K-562): 4.71 µM
TGI A-549 (A-549): 2.13E−06 Molar
GI50 (A-549): 1.18 µM
CC50 (A-549): 3.82 µM
TGI LN-caP (LNCaP): 2.39E−06 Molar
GI50 (LNCaP): 1.21 µM
CC50 (LNCaP): 4.73 µM
GI50 (HeLa): 1.4 µM
TGI HELA (HeLa): 2.71E−06 Molar
CC50 (HeLa): 5.25 µM

C/C=C1\NC(=O)[C@H](Cc2ccccc2)NC(=O)[C@@H](C(C)C)NC(=O)[C@@H]([C@@H](C)CC)NC(=O)[C@H](NC(=O)[C@H](NC(=O)[C@H](CCCN)NC(=O)[C@H]2Cc3ccccc3CN2C(=O)[C@H](NC(=O)[C@@H](NC(=O)[C@@H](NC(=O)[C@H](NC(=O)CC[C@@H](C)CC)C(C)C)[C@@H](C)O)C(C)C)C(C)C)[C@@H](C)CC)[C@@H](C)OC(=O)[C@H](C(C)C)NC1=O [Compound 61, [D-Tic^9, (4S)-MeHex^14]-KF] ({Hexanoyl(4S-Me)}-[dV]TV[dV][dTic][Orn][d(aIle)][d(aThr)][d(aIle)][dV]F[Dhb]V; ester 8-C)
TGI HT-29 (HT-29; HT-29): 2.25E−06 Molar
GI50 (HT-29; HT-29): 1.18 µM
CC50 (HT-29; HT-29): 4.26 µM
GI50 (SK-MEL-28; SRB): 3.79 µM
TGI MEL-28 (SK-MEL-28; SRB): 6.49E−06 Molar
CC50 (SK-MEL-28; SRB): ≥ 6.49 µM
GI50 (IGROV-ET; SRB): 1.44 µM
TGI IGROV-ET (IGROV-ET; SRB): 3.30E−06 Molar
CC50 (IGROV-ET; SRB): ≥ 6.49 µM
GI50 (DU-145; SRB): 1.72 µM
LC50 (concentration causing 50% net cell kill) (DU-145; SRB): ≥ 6.49 µM
TGI DU-145 (DU-145; SRB): 4.24E−06 Molar
GI50 (IGROV-1; SRB): 1.36 µM
LC50 (concentration causing 50% net cell killing) (IGROV-1; SRB): 5.98 µM
TGI IGROV (IGROV-1; SRB): 2.86E−06 Molar
GI50 (LoVo; LOVO): 1.2 µM
TGI LOVO (LoVo; LOVO): 2.65E−06 Molar
CC50 (LoVo; LOVO): 5.83 µM
GI50 (HeLa-APL; HELA-APL): 4.93 µM
TGI HELA-APL (HeLa-APL; HELA-APL): 6.49E−06 Molar
CC50 (HeLa-APL; HELA-APL): ≥ 6.49 µM
GI50 (PANC-1; PANC-1): ≥ 6.49 µM
TGI PANC-1 (PANC-1; PANC-1): 6.49E−06 Molar
CC50 (PANC-1; PANC-1): ≥ 6.49 µM
GI50 (K-562; K-562): ≥ 6.49 µM
TGI K-562 (K-562; K-562): 6.49E−06 Molar
CC50 (K-562; K-562): ≥ 6.49 µM
TGI A-549 (A-549; A-549): 6.49E−06 Molar
GI50 (A-549; A-549): 2.87 µM
CC50 (A-549; A-549): ≥ 6.49 µM
TGI LN-caP (LNCaP; SRB): 2.40E−06 Molar
GI50 (LNCaP; SRB): 0.921 µM
CC50 (LNCaP; SRB): 6.26 µM
GI50 (HeLa; HELA): 3.48 µM
TGI HELA (HeLa; HELA): 6.49E−06 Molar
CC50 (HeLa; HELA): ≥ 6.49 µM
GI50 (LoVo-Dox): 1.17 µM
TGI LOVO-DOX (LoVo-Dox): 2.71E−06 Molar
CC50 (LoVo-Dox; read-out: LC50 LOVO-DOX): 6.28 µM
